From ChEMBL document CHEMBL3045518, “Synthesis of novel 3-[5-ethyl-2-(2-phenoxy-ethyl)-pyridin]-5-substituted isoxazoline libraries via 1,3-dipolar cycloaddition and evaluation of antimicrobial activities” (2006)
≈ marks a conversion by molar mass, not a printed value.

Experiments:
Type in all cases: functional
Bacillus subtilis [1] = assay: Antibacterial activity against Bacillus subtilis by microdilution method
Bacillus subtilis [2] = assay: Antibacterial activity against Bacillus subtilis at 25 ug/disk after 24 hr by disk diffusion method; settings: read-out: DIZ
Escherichia coli [3] = assay: Antibacterial activity against Escherichia coli by microdilution method
Pseudomonas fluorescens [4] = assay: Antibacterial activity against Pseudomonas fluorescens by microdilution method
Escherichia coli [5] = assay: Antibacterial activity against Escherichia coli at 25 ug/disk after 24 hr by disk diffusion method; settings: read-out: DIZ
Pseudomonas fluorescens [6] = assay: Antibacterial activity against Pseudomonas fluorescens at 25 ug/disk after 24 hr by disk diffusion method; settings: read-out: DIZ
Aspergillus niger [7] = assay: Antifungal activity against Aspergillus niger after 48 hr by microdilution method
[8] = test system: Xanthomonas euvesicatoria pv. sesami; assay: Antibacterial activity against Xanthomonas campestris pv. sesami by microdilution method
Fusarium oxysporum [9] = assay: Antifungal activity against Fusarium oxysporum at 25 ug/disk after 48 hr by disk diffusion method; settings: for zone of inhibition at 25 µg/disc: read-out: DIZ
Aspergillus flavus [10] = assay: Antifungal activity against Aspergillus flavus at 25 ug/disk after 48 hr by disk diffusion method; settings: for zone of inhibition at 25 µg/disc: read-out: DIZ
Aspergillus flavus [11] = assay: Antifungal activity against Aspergillus flavus after 48 hr by microdilution method
Penicillium sp. [12] = assay: Antifungal activity against Penicillium sp. after 48 hr by microdilution method
Fusarium verticillioides [13] = assay: Antifungal activity against Fusarium verticillioides after 48 hr by microdilution method
Fusarium oxysporum [14] = assay: Antifungal activity against Fusarium oxysporum after 48 hr by microdilution method
Xanthomonas oryzae [15] = assay: Antibacterial activity against Xanthomonas oryzae by microdilution method
Fusarium verticillioides [16] = assay: Antifungal activity against Fusarium verticillioides at 25 ug/disk after 48 hr by disk diffusion method; settings: for zone of inhibition at 25 µg/disc: read-out: DIZ
Trichoderma [17] = assay: Antifungal activity against Trichoderma sp. at 25 ug/disk after 48 hr by disk diffusion method; settings: for zone of inhibition at 25 µg/disc: read-out: DIZ
Penicillium sp. [18] = assay: Antifungal activity against Penicillium sp. at 25 ug/disk after 48 hr by disk diffusion method; settings: for zone of inhibition at 25 µg/disc: read-out: DIZ
Aspergillus niger [19] = assay: Antifungal activity against Aspergillus niger at 25 ug/disk after 48 hr by disk diffusion method; settings: for zone of inhibition at 25 µg/disc: read-out: DIZ
Xanthomonas oryzae [20] = assay: Antibacterial activity against Xanthomonas oryzae at 25 ug/disk after 24 hr by disk diffusion method; settings: read-out: DIZ
[21] = test system: Xanthomonas euvesicatoria pv. sesami; assay: Antibacterial activity against Xanthomonas campestris pv. sesami at 25 ug/disk after 24 hr by disk diffusion method; settings: read-out: DIZ
Trichoderma [22] = assay: Antifungal activity against Trichoderma sp. after 48 hr by microdilution method

| Molecule | MIC (Bacillus subtilis [1]) [µg/mL] | zone of inhibition at 25 µg/disc (Bacillus subtilis [2]) [mm] | MIC (Escherichia coli [3]) [µg/mL] | MIC (Pseudomonas fluorescens [4]) [µg/mL] | zone of inhibition at 25 µg/disc (Escherichia coli [5]) [mm] | zone of inhibition at 25 µg/disc (Pseudomonas fluorescens [6]) [mm] | MIC (Aspergillus niger [7]) [µg/mL] | MIC [8] [µg/mL] | zone of inhibition at 25 µg/disc (Fusarium oxysporum [9]) [mm] | zone of inhibition at 25 µg/disc (Aspergillus flavus [10]) [mm] | MIC (Aspergillus flavus [11]) [µg/mL] | MIC (Penicillium sp. [12]) [µg/mL] | MIC (Fusarium verticillioides [13]) [µg/mL] | MIC (Fusarium oxysporum [14]) [µg/mL] | MIC (Xanthomonas oryzae [15]) [µg/mL] | zone of inhibition at 25 µg/disc (Fusarium verticillioides [16]) [mm] | zone of inhibition at 25 µg/disc (Trichoderma [17]) [mm] | zone of inhibition at 25 µg/disc (Xanthomonas oryzae [20]) [mm] | zone of inhibition at 25 µg/disc [21] [mm] | MIC (Trichoderma [22]) [µg/mL] | other results |
| --- | --- | --- | --- | --- | --- | --- | --- | --- | --- | --- | --- | --- | --- | --- | --- | --- | --- | --- | --- | --- | --- |
| CN[C@@H]1[C@H](O[C@H]2[C@H](O[C@H]3[C@H](O)[C@@H](O)[C@H](N=C(N)N)[C@@H](O)[C@@H]3N=C(N)N)O[C@@H](C)[C@]2(O)C=O)O[C@@H](CO)[C@H](O)[C@H]1O [STREPTOMYCIN] | 19 (≈ 32.7 µM) | 13 | 13 (≈ 22.4 µM) | 12 (≈ 20.6 µM) | 14 | 17 |  |  |  |  |  |  |  |  |  |  |  |  |  |  |  |
| CCc1ccc(CCOc2ccc(C3=NOC(C#N)C3)cc2)nc1 (stereo not drawn) | 27 (≈ 84 µM) | 7 | 21 (≈ 65.3 µM) | 23 (≈ 71.6 µM) | 7 | 6 | 20 (≈ 62.2 µM) | 20 (≈ 62.2 µM) | 5 | 3 | 21 (≈ 65.3 µM) | 20 (≈ 62.2 µM) | 18 (≈ 56 µM) | 19 (≈ 59.1 µM) | 22 (≈ 68.5 µM) | 10 | 4 | 4 | 5 | 20 (≈ 62.2 µM) | zone of inhibition at 25 µg/disc (Penicillium sp. [18]): 2 mm; zone of inhibition at 25 µg/disc (Aspergillus niger [19]): 2 mm |
| CCc1ccc(CCOc2ccc(C3=NOC(c4ccccc4)C3)cc2)nc1 (stereo not drawn) | 27 (≈ 72.5 µM) | 5 | 28 (≈ 75.2 µM) | 26 (≈ 69.8 µM) | 6 | 6 | 22 (≈ 59.1 µM) | 27 (≈ 72.5 µM) | 4 | 4 | 24 (≈ 64.4 µM) | 23 (≈ 61.8 µM) | 20 (≈ 53.7 µM) | 21 (≈ 56.4 µM) | 25 (≈ 67.1 µM) | 3 | 6 | 4 | 4 | 20 (≈ 53.7 µM) | zone of inhibition at 25 µg/disc (Penicillium sp. [18]): 3 mm; zone of inhibition at 25 µg/disc (Aspergillus niger [19]): 3 mm |
| CCc1ccc(CCOc2ccc(C3=NOC(C(=O)OC)C3)cc2)nc1 (stereo not drawn) | 27 (≈ 76.2 µM) | 5 | 24 (≈ 67.7 µM) | 22 (≈ 62.1 µM) | 6 | 5 | 22 (≈ 62.1 µM) | 22 (≈ 62.1 µM) | 4 | 4 | 24 (≈ 67.7 µM) | 24 (≈ 67.7 µM) | 22 (≈ 62.1 µM) | 20 (≈ 56.4 µM) | 27 (≈ 76.2 µM) | 3 | 5 | 3 | 3 | 20 (≈ 56.4 µM) | zone of inhibition at 25 µg/disc (Penicillium sp. [18]): 2 mm; zone of inhibition at 25 µg/disc (Aspergillus niger [19]): 3 mm |
| CCc1ccc(CCOc2ccc(C3=NOC(CO)C3)cc2)nc1 (stereo not drawn) | 18 (≈ 55.1 µM) | 14 | 14 (≈ 42.9 µM) | 12 (≈ 36.8 µM) | 13 | 17 | 15 (≈ 46 µM) | 10 (≈ 30.6 µM) | 15 | 9 | 16 (≈ 49 µM) | 9 (≈ 27.6 µM) | 10 (≈ 30.6 µM) | 10 (≈ 30.6 µM) | 12 (≈ 36.8 µM) | 12 | 15 | 13 | 13 | 13 (≈ 39.8 µM) | zone of inhibition at 25 µg/disc (Penicillium sp. [18]): 11 mm; zone of inhibition at 25 µg/disc (Aspergillus niger [19]): 8 mm |
| CCOC(=O)C1CC(c2ccc(OCCc3ccc(CC)cn3)cc2)=NO1 (stereo not drawn) | 20 (≈ 54.3 µM) | 11 | 16 (≈ 43.4 µM) | 16 (≈ 43.4 µM) | 12 | 13 | 17 (≈ 46.1 µM) | 14 (≈ 38 µM) | 11 | 8 | 18 (≈ 48.9 µM) | 11 (≈ 29.9 µM) | 12 (≈ 32.6 µM) | 14 (≈ 38 µM) | 16 (≈ 43.4 µM) | 9 | 12 | 9 | 9 | 14 (≈ 38 µM) | zone of inhibition at 25 µg/disc (Penicillium sp. [18]): 8 mm; zone of inhibition at 25 µg/disc (Aspergillus niger [19]): 6 mm |
| CCc1ccc(CCOc2ccc(C3=NOC(Cc4ccc5c(c4)OCO5)C3)cc2)nc1 (stereo not drawn) | 25 (≈ 58.1 µM) | 5 | 22 (≈ 51.1 µM) | 20 (≈ 46.5 µM) | 6 | 7 | 22 (≈ 51.1 µM) | 21 (≈ 48.8 µM) | 4 | 3 | 21 (≈ 48.8 µM) | 21 (≈ 48.8 µM) | 18 (≈ 41.8 µM) | 22 (≈ 51.1 µM) | 22 (≈ 51.1 µM) | 3 | 4 | 3 | 4 | 20 (≈ 46.5 µM) | zone of inhibition at 25 µg/disc (Penicillium sp. [18]): 2 mm; zone of inhibition at 25 µg/disc (Aspergillus niger [19]): 3 mm |
| CCc1ccc(CCOc2ccc(C3=NOC(Cc4ccc(O)c(OC)c4)C3)cc2)nc1 (stereo not drawn) | 18 (≈ 41.6 µM) | 12 | 14 (≈ 32.4 µM) | 12 (≈ 27.7 µM) | 14 | 18 | 16 (≈ 37 µM) | 10 (≈ 23.1 µM) | 13 | 10 | 15 (≈ 34.7 µM) | 11 (≈ 25.4 µM) | 10 (≈ 23.1 µM) | 12 (≈ 27.7 µM) | 13 (≈ 30.1 µM) | 11 | 15 | 12 | 13 | 13 (≈ 30.1 µM) | zone of inhibition at 25 µg/disc (Penicillium sp. [18]): 9 mm; zone of inhibition at 25 µg/disc (Aspergillus niger [19]): 7 mm |
| CN(C)[C@@H]1C(O)=C(C(N)=O)C(=O)[C@@]2(O)C(O)=C3C(=O)c4c(O)cccc4[C@@](C)(O)[C@H]3C[C@@H]12 [TETRACYCLINE] |  |  |  |  |  |  |  | 9 (≈ 20.3 µM) |  |  |  |  |  |  | 13 (≈ 29.3 µM) |  |  | 12 | 12 |  |  |
| NYSTATIN |  |  |  |  |  |  | 15 |  |  |  | 15 | 10 | 9 | 11 |  |  |  |  |  | 12 | inhibition zone (IZ) (Fusarium oxysporum [9]): 14 mm; inhibition zone (IZ) (Aspergillus flavus [10]): 10 mm; inhibition zone (IZ) (Fusarium verticillioides [16]): 12 mm; inhibition zone (IZ) (Trichoderma [17]): 16 mm; inhibition zone (IZ) (Penicillium sp. [18]): 10 mm; inhibition zone (IZ) (Aspergillus niger [19]): 8 mm |
| CCc1ccc(CCOc2ccc(C3=NOC(Cc4ccc(OC)c(OC)c4)C3)cc2)nc1 (stereo not drawn) | 20 (≈ 44.8 µM) | 14 | 15 (≈ 33.6 µM) | 15 (≈ 33.6 µM) | 15 | 14 | 18 (≈ 40.3 µM) | 11 (≈ 24.6 µM) | 12 | 7 | 17 (≈ 38.1 µM) | 12 (≈ 26.9 µM) | 11 (≈ 24.6 µM) | 13 (≈ 29.1 µM) | 15 (≈ 33.6 µM) | 10 | 13 | 9 | 10 | 15 (≈ 33.6 µM) | zone of inhibition at 25 µg/disc (Penicillium sp. [18]): 8 mm; zone of inhibition at 25 µg/disc (Aspergillus niger [19]): 6 mm |
